Experimental findings from patent US11173145B2, “Compounds useful as inhibitors of indoleamine 2,3-dioxygenase and/or tryptophan dioxygenase” (Board of Regents, The University of Texas System, priority 2017, dated 2021) are described below.

Bounds are passed on as bounds.

In one assay the target is T1, IDO1 (Homo sapiens, UniProt P14902).
T1 construct: endogenous in cells; host or cells: HeLa cells (ATCC), IFNgamma-induced
As to the kind of experiment: IDO1 cell-based assay (HeLa cells, IFNgamma-induced, N-formylkynurenine/L-tryptophan by RFMS). Particulars: 10 ng/mL IFNgamma, 24 hours. The essentials:
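N-formylkynurenine and tryptophan peak areas in media measured by RFMS (C18, isocratic, d-Trp standard), giving IC50 values by regression. Source: HeLa cells incubated 24 h with IFNgamma (10 ng/mL) plus test compound at 0.5% DMSO; parallel CellTiter-Glo viability read.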

The target of the next assay is T2, mouse IDO1 (Mus musculus, UniProt P28776).
T2 construct: The murine PANC02 pancreatic ductal adenocarcinoma cell line was routinely maintained in DMEM media; endogenous in cells; host or cells: PANC02 murine pancreatic ductal adenocarcinoma cells, induced with mouse IFNgamma
As to the kind of experiment: Mouse IDO1 cell-based assay (PANC02 cells, mouse IFNgamma-induced, N-formylkynurenine/L-tryptophan by RFMS). As to conditions: 30 ng/mL mouse IFNgamma, 48 hours.

For orientation: IC50 means the concentration that inhibits the measured activity by half.

T2 sequence (P28776 whole entry): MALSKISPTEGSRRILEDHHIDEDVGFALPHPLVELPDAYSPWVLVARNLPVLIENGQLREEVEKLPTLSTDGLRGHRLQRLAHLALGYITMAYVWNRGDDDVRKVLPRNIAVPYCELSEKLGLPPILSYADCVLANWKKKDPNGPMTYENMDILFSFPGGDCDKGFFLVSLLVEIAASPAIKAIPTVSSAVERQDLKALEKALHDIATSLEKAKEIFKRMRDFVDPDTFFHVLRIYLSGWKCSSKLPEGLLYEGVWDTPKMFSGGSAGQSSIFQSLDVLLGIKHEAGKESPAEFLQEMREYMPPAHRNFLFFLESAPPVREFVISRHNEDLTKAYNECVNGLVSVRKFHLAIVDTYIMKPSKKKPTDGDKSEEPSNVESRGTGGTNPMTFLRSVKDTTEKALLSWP
T1 sequence (P14902 whole entry): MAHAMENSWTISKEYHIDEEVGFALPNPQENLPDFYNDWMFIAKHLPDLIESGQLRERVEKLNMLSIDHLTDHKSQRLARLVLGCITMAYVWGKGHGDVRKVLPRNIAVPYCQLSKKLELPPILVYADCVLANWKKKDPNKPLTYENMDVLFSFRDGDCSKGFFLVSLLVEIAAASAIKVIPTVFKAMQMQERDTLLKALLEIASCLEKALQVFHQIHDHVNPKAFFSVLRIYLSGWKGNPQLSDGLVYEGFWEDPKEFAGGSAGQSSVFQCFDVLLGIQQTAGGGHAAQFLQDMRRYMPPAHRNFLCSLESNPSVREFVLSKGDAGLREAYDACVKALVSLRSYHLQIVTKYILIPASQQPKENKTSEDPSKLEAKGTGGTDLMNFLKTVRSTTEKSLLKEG

Consider `CCC(NC(=O)c1ccc(Cl)cc1)[C@H]1[C@@H]2C[C@H](NC(=O)c3ncccc3F)C[C@@H]21` (stereo partly drawn) [Compound 220, N-((1R,3r,5S,6r)-6-(1-(4-chlorobenzamido)propyl)bicyclo[3.1.0]hexan-3-yl)-3-fluoropicolinamide], for which the IC50 is less than 200 nM against IDO1 and less than 500 nM at mouse IDO1.
In the same order, the values of `CCC(NC(=O)c1ccc(Cl)cc1)[C@H]1[C@@H]2C[C@H](NC(=O)c3ccc(F)cn3)C[C@@H]21` (stereo partly drawn) [Compound 221, N-((1R,3r,5S,6r)-6-(1-(4-chlorobenzamido)propyl)bicyclo[3.1.0]hexan-3-yl)-5-fluoropicolinamide] are less than 200 nM and less than 500 nM.
In the same order, the values of `CCC(NC(=O)c1ccc(Cl)cc1)[C@H]1[C@@H]2C[C@H](NC(=O)c3nccc(C(F)(F)F)c3Cl)C[C@@H]21` (stereo partly drawn) [Compound 222, 3-chloro-N-((1R,3r,5S,6r)-6-(1-(4-chlorobenzamido)propyl)bicyclo[3.1.0]hexan-3-yl)-4-(trifluoromethyl)picolinamide] are 200 to 2000 nM and 500 to 2000 nM.
The corresponding values for `CCC(NC(=O)c1ccc(Cl)cc1)[C@H]1[C@@H]2C[C@@H](NC(=O)c3cccnc3C)C[C@@H]21` (stereo partly drawn) [Compound 223, N-((1R,3s,5S,6r)-6-(1-(4-chlorobenzamido)propyl)bicyclo[3.1.0]hexan-3-yl)-2-methylnicotinamide] are less than 200 nM and greater than 5000 nM.
On to `CCC(NC(=O)c1ccc(Cl)cc1)[C@H]1[C@@H]2C[C@@H](NC(C(=O)NC)c3ccccc3)C[C@@H]21` (stereo partly drawn) [Compound 224, 4-chloro-N-(1-((1R,3s,5S,6r)-3-((2-(methylamino)-2-oxo-1-phenylethyl)amino)bicyclo[3.1.0]hexan-6-yl)propyl)benzamide], for which the IC50 at IDO1 is 2000 to 5000 nM; against mouse IDO1, greater than 5000 nM.
In the same order, the values of `CCC(NC(=O)c1ccc(Cl)cc1)[C@H]1[C@@H]2C[C@@H](NC(=O)c3cc(C(F)(F)F)ccn3)C[C@@H]21` (stereo partly drawn) [Compound 225, N-((1R,3s,5S,6r)-6-(1-(4-chlorobenzamido)propyl)bicyclo[3.1.0]hexan-3-yl)-4-(trifluoromethyl)picolinamide] are less than 200 nM and 2000 to 5000 nM.
In the same order, the values of `CCC(NC(=O)c1ccc(Cl)cc1)[C@H]1[C@@H]2C[C@@H](Nc3ccccn3)C[C@@H]21` (stereo partly drawn) [Compound 226, 4-chloro-N-(1-((1R,3s,5S,6r)-3-(pyridin-2-ylamino)bicyclo[3.1.0]hexan-6-yl)propyl)benzamide] are less than 200 nM and less than 500 nM.
Regarding `CCC(NC(=O)c1ccc(Cl)cc1)[C@H]1[C@@H]2C[C@@H](Nc3ccc(F)cn3)C[C@@H]21` (stereo partly drawn) [Compound 227, 4-chloro-N-(1-((R, 3s, 5S, 6r)-3-((5-fluoropyridin-2-yl)amino)bicyclo[3.1.0]hexan-6-yl)propyl)benzamide], the IC50 was less than 200 nM against IDO1 and 500 to 2000 nM on mouse IDO1.
As for `CCC(NC(=O)c1ccc(Cl)cc1)[C@H]1[C@@H]2C[C@@H](C(C(=O)O)c3ccccc3)C[C@@H]21` (stereo partly drawn) [Compound 228, 2-((1R,3s, 5S, 6r)-6-(1-(4-chlorobenzamido)propyl)bicyclo[3.1.0]hexan-3-yl)-2-phenylacetic acid], the IC50 against IDO1 and at mouse IDO1 was 2000 to 5000 nM throughout.
Turning to `CCC(NC(=O)c1ccc(Cl)cc1)[C@H]1[C@@H]2C[C@@H](n3ccc4cc(F)ccc43)C[C@@H]21` (stereo partly drawn) [Compound 229, 4-chloro-N-(1-((1R,3s,5S,6r)-3-(5-fluoro-1H-indol-1-yl)bicyclo[3.1.0]hexan-6-yl)propyl)benzamide], the results for the IC50 on IDO1 and at mouse IDO1 were less than 200 nM and less than 500 nM, respectively.
For `CCC(NC(=O)c1ccc(Cl)cc1)[C@H]1[C@@H]2C[C@@H](n3cc(N4C(=O)c5ccccc5C4=O)nn3)C[C@@H]21` (stereo partly drawn) [Compound 232, 4-chloro-N-(1-((1R,3s,5S,6r)-3-(4-(1,3-dioxoisoindolin-2-yl)-1H-1,2,3-triazol-1-yl)bicyclo[3.1.0]hexan-6-yl)propyl)benzamide], the IC50 on IDO1 and against mouse IDO1 was greater than 5000 nM each time.
`CCC(NC(=O)c1ccc(Cl)cc1)[C@H]1[C@@H]2C[C@@H](n3cc(C4CN(C(=O)OC(C)(C)C)C4)nn3)C[C@@H]21` (stereo partly drawn) [Compound 233, tert-butyl 3-(1-((1R,3s,5S,6r)-6-(1-(4-chlorobenzamido)propyl)bicyclo[3.1.0]hexan-3-yl)-1H-1,2,3-triazol-4-yl)azetidine-1-carboxylate]: the figures for the IC50 against IDO1 and on mouse IDO1 were 2000 to 5000 nM and greater than 5000 nM, respectively.
The corresponding values for `CCC(NC(=O)c1ccc(Cl)cc1)[C@H]1[C@@H]2C[C@@H](Nc3ncc(F)cc3[N+](=O)[O-])C[C@@H]21` (stereo partly drawn) [Compound 236, 4-chloro-N-(1-((1R,3s,5S,6r)-3-((5-fluoro-3-nitropyridin-2-yl)amino)bicyclo[3.1.0]hexan-6-yl)propyl)benzamide] are less than 200 nM and 500 to 2000 nM.
For the compound `CCC(NC(=O)c1ccc(Cl)cc1)[C@H]1[C@@H]2C[C@@H](n3cc(C4CNC4)nn3)C[C@@H]21` (stereo partly drawn) [Compound 237, N-(1-((1R,3s,5S,6r)-3-(4-(azetidin-3-yl)-1H-1,2,3-triazol-1-yl)bicyclo[3.1.0]hexan-6-yl)propyl)-4-chlorobenzamide], the IC50 at IDO1 and at mouse IDO1 was greater than 5000 nM throughout.
For `CCC(NC(=O)c1ccc(Cl)cc1)[C@H]1[C@@H]2C[C@@H](n3cc(N(C)C)nn3)C[C@@H]21` (stereo partly drawn) [Compound 238, 4-chloro-N-(1-((1R,3s,5S,6r)-3-(4-(dimethylamino)-1H-1,2,3-triazol-1-yl)bicyclo[3.1.0]hexan-6-yl)propyl)benzamide], the results for the IC50 at IDO1 and on mouse IDO1 were less than 200 nM and less than 500 nM, respectively.
In the same order, the values of `CCC(NC(=O)c1ccc(Cl)cc1)[C@H]1[C@@H]2C[C@@H](n3cc(N)nn3)C[C@@H]21` (stereo partly drawn) [Compound 239, N-(1-((1R,3s,5S,6r)-3-(4-amino-1H-1,2,3-triazol-1-yl)bicyclo[3.1.0]hexan-6-yl)propyl)-4-chlorobenzamide] are 2000 to 5000 nM and greater than 5000 nM.
As for `COCc1cn([C@@H]2C[C@@H]3[C@H](C2)[C@H]3C(C)NC(=O)c2ccc(C#N)cc2)nn1` (stereo partly drawn) [Compound 242, 4-cyano-N-(1-((1R,3s,5S,6r)-3-(4-(methoxymethyl)-1H-1,2,3-triazol-1-yl)bicyclo[3.1.0]hexan-6-yl)ethyl)benzamide], the IC50 was 200 to 2000 nM on IDO1 and greater than 5000 nM on mouse IDO1.
The corresponding values for `CCC(NC(=O)c1ccc(Cl)cc1)[C@H]1[C@@H]2C[C@@H](Nc3cc(F)cc(F)c3[N+](=O)[O-])C[C@@H]21` (stereo partly drawn) [Compound 243, 4-chloro-N-(1-((1R,3s,5S,6r)-3-((3,5-difluoro-2-nitrophenyl)amino)bicyclo[3.1.0]hexan-6-yl)propyl)benzamide] are 200 to 2000 nM and 500 to 2000 nM.
In the same order, the values of `CCC(NC(=O)c1ccc(Cl)cc1)[C@H]1[C@@H]2C[C@@H](Nc3c([N+](=O)[O-])ccc(F)c3F)C[C@@H]21` (stereo partly drawn) [Compound 244, 4-chloro-N-(1-((1R,3s,5S,6r)-3-((2,3-difluoro-6-nitrophenyl)amino)bicyclo[3.1.0]hexan-6-yl)propyl)benzamide] are less than 200 nM and 500 to 2000 nM.
